pIC50: −log10 of the molar value. Like-named read-outs stand apart in the source and are kept apart here.
Columns and labels:
[1] = tested on: human esophageal carcinoma cell line OE33; test: MTT Cell Proliferation Assay in OE33; type: cell-based
Experimental: To test the activity of tris(8-quinolinolato)gallium(III), ATCC's MTT Cell Proliferation Assay® was performed using human esophageal carcinoma cell line OE33. Stock cultures were allowed to grow to 70-80% confluence for this study. The anti-proliferative activity of tris(8-quinolinolato)gallium(III) against the indicated cell line was evaluated in vitro using the ATCC's MTT Cell Proliferation Assay (Catalog No. 30-1010K). OE33 plates were seeded with 1,200 cells/well, and the cells were grown in RPMI1640 medium containing 1% (1M HEPES), 1% sodium pyruvate, 10% FBS and 1% penicillin/strep/glutamine. Cultures were maintained in a 37° C. humidified 5% CO2/95% air atmosphere. The cells were treated with tris(8-quinolinolato)gallium(III) at 1,000 μM, or a series of 4×dilutions thereof (250 μM, 62.5 μM, etc.). […] The plates were left overnight at room temperature in the dark and was read on a plate reader using SoftMax® Pro (version 5.2, Molecular Devices).
The absorbance data was analyzed as follows: Absorbance values were converted to Percent of Control and plotted against test agent concentrations for IC50 calculations using SoftMax® Pro (version 5.2, Molecular Devices). […] Percent of Control values were calculated by dividing the absorbance values for each test well by the No Drug Control average (column 11 values; cells+vehicle control) and multiplying by 100. […]

[2] = tested on: human gastric cancer cell line NCI-N87; test: MTT Cell Proliferation Assay in NCI-N87; type: cell-based
Experimental: To test the activities of tris(8-quinolinolato)gallium(III), ATCC's MTT Cell Proliferation Assay® was performed using human gastric cancer cell line NCI-N87 (differentiated carcinoma). Stock cultures were allowed to grow to 70-80% confluence for this study. The anti-proliferative activity of tris(8-quinolinolato)gallium(III), against the indicated cell line was evaluated in vitro using the ATCC's MTT Cell Proliferation Assay (Catalog No. 30-1010K). NCI-N87 was grown using RPMI1640 (Cell Gro 10-040-CV), with 1% of 1M HEPES, 1% sodium pyruvate, 1% of 45% glucose solution, 10% of heat-inactivated FBS and 1% of pen/strep/glutamine. NCI-N87 cell plates were seeded with 20E+03 cells/well and treated with tris(8-quinolinolato)gallium(III) at 1,000 μM, or a series of 4×dilutions thereof (250 μM, 62.5 μM, etc.). 100 μl of medium was removed from each well at 72 hours post-treatment and 10 μl MTT reagent was added to each well. The plates were incubated plate at 37° C. for 4 hours and then 100 μl of detergent was added. The plates were left overnight at room temperature in the dark and was read on a plate reader using SoftMax® Pro (version 5.2, Molecular Devices).
The absorbance data was analyzed as follows: Absorbance values were converted to Percent of Control and plotted against test agent concentrations for IC50 calculations using SoftMax® Pro (version 5.2, Molecular Devices). The plate blank signal average was subtracted from all wells prior to calculating the Percent of Control. Percent of Control values were calculated by dividing the absorbance values for each test well by the No Drug Control average (column 11 values; cells+vehicle control) and multiplying by 100. Plots of Compound Concentration versus Percent of Control were analyzed using the 4-parameter equation to obtain IC50 values and other parameters that describe the sigmoidal dose response curve.
The IC50 value for the test agents was estimated by curve-fitting the data using the following four parameter-logistic equation:
wherein “Top” is the maximal % of control absorbance (100%) (Value “A” in FIG. 1, 88.3), “Bottom” is the minimal % of control absorbance at the highest agent concentration (down to zero) (Value “D” in FIG. 1, 20.8), Y is the Percent of Control absorbance, X is the test agent Concentration, IC50 is the concentration of agent that inhibits cell growth by 50% compared to the control cells (Value “C” in FIG. 1, 8.42e+03), n is the slope of the curve (Value “B” in FIG. 1, 2.31).

[3] = NCI-N87, four parameter-logistic fit

`[Ga+3].[O-]c1cccc2cccnc12.[O-]c1cccc2cccnc12.[O-]c1cccc2cccnc12` [tris(8-quinolinolato)gallium(III)] was tested, and the “growth inhibition in MTT assay (FIG. 2)” value ([1]; OE33) was “dose-dependent growth inhibition”, the pIC50 ([1]; OE33 cell line, MTT, 72 hours post-treatment, read-out: IC50 (concentration of agent that inhibits cell growth by 50% compared to the control cells)) was 5.51 and the “growth inhibition in MTT assay (FIG. 1)” value ([2]; NCI-N87) was “dose-dependent growth inhibition”. The “Bottom, minimal % of control absorbance at the highest agent concentration (Value "D" in FIG. 1)” value [2, 3] was 20.8 % of control, the “Top, maximal % of control absorbance (Value "A" in FIG. 1)” value [2, 3] was 88.3 % of control and the IC50 ([2]; NCI-N87, four parameter-logistic fit, X axis of FIG. 1 in nM, read-out: IC50 (Value "C" in FIG. 1)) was 8420 nM. It also gave a pIC50 ([2]; NCI-N87 cell line, MTT, 72 hours post-treatment, read-out: IC50 (concentration of agent that inhibits cell growth by 50% compared to the control cells)) of 5.07.

From patent publication US20130324513A1, “METHOD FOR TREATING ESOPHAGEAL CANCER” (Niiki Pharma Acquisition Corp. 2, priority 2010, published 2013)
